{"source": "patent EP0909175B1", "about": "“NON-AQUEOUS PROTIC PEPTIDE FORMULATIONS” (ALZA CORPORATION, priority 1996, dated 1998)", "format_in_all_cases": "physicochemical", "key": {"[1]": {"assay": "Anti-gellant effect of adding polar aprotic solvents (DMSO) to non-aqueous protic solvent formulations", "details": "adding polar aprotic solvents such as DMSO to non-aqueous protic solvent formulation", "from_the_text": "For example, leuprolide can be induced to gel by increasing peptide concentration, introduction of salts or gentle agitation. Improving physical stability can allow for easier parenteral administration, including administration using implantable drug delivery systems.\nThus, these solvents have an anti-gellant effect."}, "[2]": {"assay": "Stability of nafarelin formulations, one month at 37°C, RP-HPLC (Example 11)", "details": "for % CONCENTRATION: % concentration method called unreliable", "method": "(§1) Stability samples were analyzed using RP-HPLC. The area under the curve for the leuprolide peak divided by the sum of the areas under the curve of all peaks gave % purity. [It should be noted that the data for % concentration presented with the % purity data (Examples 6, 8, 9 and 10) are inconclusive. The analysis methods used to determine % concentration in these experiments were unreliable.]\nFormulations of 15% (w/w) nafarelin in either PEG 600 or propylene glycol were prepared as described above for leuprolide and placed in polymeric containers.\nThe containers were stored at 37°C for one month in an incubator.\nThe samples were analyzed using RP-HPLC to determine the chemical stability of the aged formulations."}, "[3]": {"assay": "Stability of goserelin formulations, one month at 37°C, RP-HPLC (Example 10)", "details": "for % CONCENTRATION: patent calls % concentration data unreliable", "method": "as §1\nFormulations of 40-45% (w/w) goserelin in either PEG 600 or PG/acetate buffer (30:70) were prepared as described above and placed in polymeric containers. The containers were stored at 37°C for one month in an incubator. The samples were analyzed using RP-HPLC to determine the chemical stability of the aged formulations."}, "[4]": {"assay": "Solubility studies of leuprolide acetate in PG (Example 3)", "details": "in PG (w/w), heated at 80°C to accelerate dissolution", "method": "Leuprolide acetate (obtained, for example, from Mallinckrodt, St. Louis, Missouri) was weighed and dissolved using heat (80°C), swirling, agitation and/or centrifugation as needed, in vehicle (PG, PEG, MPEG, PG/H2O, PG/H2O, PEG/PG, MPEG/H2O, or PG with EDTA) at the appropriate concentration (w/w). Unless otherwise noted the term PEG means PEG 300. The term dry PG refers to PG formulations prepared in a low moisture environment (i.e., dry N2 atmosphere). Leuprolide acetate formulations in PG were prepared as described above. Formulations were heated at 80°C to accelerate the dissolution of leuprolide in PG."}, "[5]": {"details": "vehicle PEG 600, one month at 37°C"}}}
{"substance": "leuprolide", "values": [{"measurement": "gelation of the formulation", "setting": "[1]", "result": "prevents gelation"}]}
{"substance": "nafarelin", "values": [{"measurement": "% PURITY", "setting": "[2]; vehicle PEG 600, 15% (w/w), one month at 37°C", "result": 99.4, "unit": "%"}, {"measurement": "% CONCENTRATION", "setting": "[2]; [5]", "result": 15.8, "unit": "%"}, {"measurement": "% PURITY", "setting": "[2]; vehicle PG, 15% (w/w), one month at 37°C", "result": 99.4, "unit": "%"}, {"measurement": "% CONCENTRATION", "setting": "[2]; vehicle PG, one month at 37°C", "result": 12.9, "unit": "%"}]}
{"substance": "goserelin", "values": [{"measurement": "% PURITY", "setting": "[3]; vehicle PEG 600, 40-45% (w/w), one month at 37°C", "result": 99.3, "unit": "%"}, {"measurement": "% CONCENTRATION", "setting": "[3]; [5]", "result": 23.6, "unit": "%"}, {"measurement": "% PURITY", "setting": "[3]; vehicle PG/Acetate Buffer(30:70), 40-45% (w/w), one month at 37°C", "result": 98.2, "unit": "%"}, {"measurement": "% CONCENTRATION", "setting": "[3]; vehicle PG/Acetate Buffer(30:70), one month at 37°C", "result": 49.7, "unit": "%"}, {"measurement": "gelation of the formulation", "setting": "[1]", "result": "prevents gelation"}]}
{"substance": "calcitonin", "values": [{"measurement": "gelation of the formulation", "setting": "[1]", "result": "prevents gelation"}]}
{"substance": "Leuprolide acetate", "values": [{"measurement": "% Leuprolide Acetate", "setting": "[4]; 146.8 mg leuprolide acetate in 147.2 mg PG", "result": 49.93, "unit": "%"}, {"measurement": "% Leuprolide Acetate", "setting": "[4]; 148.6 mg leuprolide acetate in 225.7 mg PG", "result": 39.70, "unit": "%"}, {"measurement": "% Leuprolide Acetate", "setting": "[4]; 154 mg leuprolide acetate in 183.7 mg PG", "result": 45.60, "unit": "%"}]}
